The numbers were not newly measured in patent US8916194B2 (Lupin Limited, priority 2010, dated 2014), which cites them from elsewhere.

SMILES strings stand for the structures.

The conditions of the data set: in vivo.

As to `CCN(CC)C(=O)C1(c2ccccc2)CC1CN` (stereo not drawn) [Milnacipran, cis-2-amino methyl-N, N-diethyl-1-phenyl cyclopropane carboxamide], the half-life is ~8 h.

A word on the half-life: it is how long it takes for the measured level to halve.
